From paper PMC10547168, “Cell cycle-dependent organization of a bacterial centromere through multi-layered regulation of the ParABS system” (PLOS Genetics, 2023) come the findings set out here.

For the assay, the target named is T1, ParBBb (Bdellovibrio bacteriovorus, UniProt Q6MGM0).
T1 construct: gene parB; C-terminal 6xHis tag kept (pET21), expressed in E. coli BL21(DE3); HisTrap and Superdex 75 purified; dimer
T1 sequence (Q6MGM0 1-337): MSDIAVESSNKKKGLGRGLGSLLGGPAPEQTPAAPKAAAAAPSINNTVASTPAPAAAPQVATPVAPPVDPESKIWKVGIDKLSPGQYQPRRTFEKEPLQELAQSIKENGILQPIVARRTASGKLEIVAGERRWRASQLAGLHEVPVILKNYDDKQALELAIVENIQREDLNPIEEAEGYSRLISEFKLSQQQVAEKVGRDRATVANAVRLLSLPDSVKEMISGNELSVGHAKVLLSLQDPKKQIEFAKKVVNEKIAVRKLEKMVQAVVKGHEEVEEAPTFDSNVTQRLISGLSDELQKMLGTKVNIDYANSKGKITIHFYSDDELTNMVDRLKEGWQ
Put plainly: EnzChek phosphate release assay (A360). It counts as biochemical. Particulars: 1 mM NTP, 1 uM ParBBb, 22 bp parSBb DNA duplex, Mg2+, Tris pH 8.0, 25 °C.

As for `Nc1ccn([C@@H]2O[C@H](COP(=O)(O)OP(=O)(O)OP(=O)(O)O)[C@@H](O)[C@H]2O)c(=O)n1` [CTP], the “EnzChek phosphate release assay (A360)” value is listed as “ParBBb hydrolyses CTP but no other NTPs in the presence of parSBb”.
